From PMC12598616, “Design and optimization of caspase-1-responsive fluorescent probes for pyroptosis imaging and anti-pyroptosis drug screening” (Chemical Science, 2025)

Columns and labels:
caspase-8 = experiment: Selectivity of probes: caspase-8; assay type: biochemical, human; conditions: caspase-8 1 μg/mL, 37 °C, 2 h, λex 510 nm, λem 585 nm
Text: The resin used for SPPS was purchased from GL Biochem (Shanghai, China). Lipopolysaccharide (LPS, L2630), Nigericin and ATP (11140965001) were purchased from Merck (Shanghai, China) and Invitrogen (Shanghai, China), respectively. Cell culture plates were sourced from Wuxi NEST Biotechnology. Recombinant human caspase-1, caspase-3, caspase-4, and caspase-8 were obtained from Abcam and MCE (Shanghai, China). Anti-cleaved caspase-1 antibody, anti-GAPDH antibody, and goat anti-Rabbit/anti-mouse lgG/HRP were purchased from CST (USA) and Beyotime […]
(§1) (Shanghai, China). […]
(§2) Medical College (ethical approval number ZJCLA-IACUC-20011003).
(§3) (also on this page, place not known: Wang,*f, Wang*abg Supplementary Information (SI) for Chemical Science. This journal is © The Royal Society of Chemistry 2025)
(§4) (1 picture or pasted object on this page, not shown here) […]
mixture was stirred for 3 h. […]
(§5) To investigate the sensitivity of the probes for caspase-1, varying concentration of caspase-1 (0, 0.2, 0.4, 0.6, 0.8, 1.0, 1.25, 1.5, 1.75, 2, 2.5, 3 U/mL) were incubated with FPy1 (5 μM), YPy1 (5 μM) and WPy1 (5 μM) respectively in caspase-1 assay buffer (50 mM HEPES, 50 mM NaCl, 0.1 % chaps, 5 % glycerol, 10 mM DTT, 10 mM EDTA) at 37 °C for 2 hours. Fluorescence spectra were recorded using Hitachi F-2700 spectrophotometer with an excitation at 510 nm (Photomultiplier voltage 700 V; Slit widths ex: 10 nm and em =5.0 nm). The fluorescence intensity of FPy1, YPy1 and WPy1 at 585 nm were plotted against the concentration of caspase-1, and a linear regression fitted from the corresponding concentration of caspase-1, and linear regression was applied to determine the slope k. The limit of detection (LoD) was calculated from 3σ/k, in which σ represents the standard deviation of 15 blank measurements. […]
The fluorescence intensity at 585 nm was measured on a Tecan Infinite M1000 Multi-function microplate reader (λex = 510 nm) at 37 °C every 2 minutes. The K M value of probes was determined from the Lineweaver-Burk plot. […]

caspase-1 [1] = molecular target: T1, caspase-1 (Homo sapiens, UniProt P29466); experiment: Sensitivity of probes for caspase-1 (fluorescence at 585 nm); assay type: biochemical; conditions: probe 5 μM
T1 sequence (P29466 120-297 limits assumed): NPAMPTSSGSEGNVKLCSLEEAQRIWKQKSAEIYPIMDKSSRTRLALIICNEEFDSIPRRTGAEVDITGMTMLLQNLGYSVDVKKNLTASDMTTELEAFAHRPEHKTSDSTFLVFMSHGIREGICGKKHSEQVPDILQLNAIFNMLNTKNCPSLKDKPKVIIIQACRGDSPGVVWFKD
T1 sequence (P29466 317-404 limits assumed): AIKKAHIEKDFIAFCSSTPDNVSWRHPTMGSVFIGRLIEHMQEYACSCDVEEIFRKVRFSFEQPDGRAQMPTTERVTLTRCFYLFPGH
Description: The spectral and chemical properties of all probes were then evaluated. Upon interaction with Cas-1, the specific peptide of the probes is cleaved, leading to the disruption of the FRET process in the system and the recovery of donor fluorescence (Fig. 2a). Prior to fluorescence detection, the UV-vis absorption spectra of the probes were acquired. […] Subsequently, the sensitivity of the probes towards Cas-1 was measured in HEPES buffer (50 mM HEPES, 50 mM NaCl, 0.1% chaps, 5% glycerol, 10 mM DTT, 10 mM EDTA). […] The response differences among the probes were more intuitively observed by analyzing the standard curves of fluorescence intensity at 585 nm against the concentration of Cas-1 (Fig. 2b). […] The reaction kinetics of the probes were also measured by monitoring the fluorescence intensity of FPy1, YPy1 and WPy1 (0.5–4 μM) following incubation with Cas-1 (2 U mL^−1) (Fig. S3a–f). […] The reaction time of the probes was also investigated by monitoring the fluorescence spectra of the probes (5 μM) incubated with Cas-1 (2 U mL^−1) at various time intervals (Fig. S4a–c). […] Finally, the selectivity of the probes was evaluated. A series of potential biologically relevant interferents were selected, and the results illustrated that these interferents had no effect on the probes (Fig. S5a–c). Further selectivity validation was performed through incubating with caspase-3 (1 μg mL^−1), caspase-4 (2 U mL^−1), caspase-8 (1 μg mL^−1) from the caspase protease family. […] Therefore, FPy1 appeared to be the prime candidate for Cas-1 imaging applications. […]
Cell culture plates were sourced from Wuxi NEST Biotechnology. Recombinant human caspase-1, caspase-3, caspase-4, and caspase-8 were obtained from Abcam and MCE (Shanghai, China). Anti-cleaved caspase-1 antibody, anti-GAPDH antibody, and goat anti-Rabbit/anti-mouse lgG/HRP were purchased from CST (USA) and Beyotime […]
as §1, §2, §3, §4
mixture was stirred for 3 h. DCM was removed under vacuum, and the residue was purified by silica gel column chromatography (DCM/MeOH, 180/1) to afford WPy1 as a dark purple solid (21 mg, 6 % yield). HRMS (ESI+): calcd […]
Analysis of probe purity by LC-MSD
Prepare dilute solutions of FPy1, YPy1 and WPy1 using chromatographic-grade acetonitrile and transfer them to sample vials. Begin with an initial mobile phase consisting of 20% acetonitrile (0.05 % formic acid) and 80% H2O (0.05 % formic acid). Over the course of 30 minutes, implement a gradient change to a mobile phase of 90% acetonitrile (0.05 % formic acid) and 10% H2O (0.05 % FA). Under the elution conditions, LC-MSD was performed on the above probe solutions and blank solvent acetonitrile.
Sensitivity of probes for caspase-1
To investigate the sensitivity of the probes for caspase-1, varying concentration of caspase-1 (0, 0.2, 0.4, 0.6, 0.8, 1.0, 1.25, 1.5, 1.75, 2, 2.5, 3 U/mL) were incubated with FPy1 (5 μM), YPy1 (5 μM) and WPy1 (5 μM) respectively in caspase-1 assay buffer (50 mM HEPES, 50 mM NaCl, 0.1 % chaps, 5 % glycerol, 10 mM DTT, 10 mM EDTA) at 37 °C for 2 hours. Fluorescence spectra were recorded using Hitachi F-2700 spectrophotometer with an excitation at 510 nm (Photomultiplier voltage 700 V; Slit widths ex: 10 nm and em =5.0 nm). The fluorescence intensity of FPy1, YPy1 and WPy1 at 585 nm were plotted against the concentration of caspase-1, and a linear regression fitted from the corresponding concentration of caspase-1, and linear regression was applied to determine the slope k. The limit of detection (LoD) was calculated from 3σ/k, in which σ represents the standard deviation of 15 blank measurements.
Various concentrations of FPy1, YPy1 and WPy1 (0.5, 1, 2, 4 μM) in 100 μL enzyme assay buffer (50 mM HEPES, 50 […]

caspase-1 [2] = molecular target: T1, caspase-1; experiment: Reaction time of probes for caspase-1; assay type: biochemical; conditions: probe 5 μM, Cas-1 2 U/mL, assay buffer, 37 °C
Description: The spectral and chemical properties of all probes were then evaluated. Upon interaction with Cas-1, the specific peptide of the probes is cleaved, leading to the disruption of the FRET process in the system and the recovery of donor fluorescence (Fig. 2a). Prior to fluorescence detection, the UV-vis absorption spectra of the probes were acquired. […] Subsequently, the sensitivity of the probes towards Cas-1 was measured in HEPES buffer (50 mM HEPES, 50 mM NaCl, 0.1% chaps, 5% glycerol, 10 mM DTT, 10 mM EDTA). […] The response differences among the probes were more intuitively observed by analyzing the standard curves of fluorescence intensity at 585 nm against the concentration of Cas-1 (Fig. 2b). […] The reaction kinetics of the probes were also measured by monitoring the fluorescence intensity of FPy1, YPy1 and WPy1 (0.5–4 μM) following incubation with Cas-1 (2 U mL^−1) (Fig. S3a–f). […] The reaction time of the probes was also investigated by monitoring the fluorescence spectra of the probes (5 μM) incubated with Cas-1 (2 U mL^−1) at various time intervals (Fig. S4a–c). […] Finally, the selectivity of the probes was evaluated. […]
as §5

[3] = system: activated Cas-1 in primary peritoneal macrophages; experiment: High-content screening / fluorescence imaging for caspase-1 modulators in primary peritoneal macrophages; assay type: cell-based, mouse; conditions: MCC950 1 μM with Nig 10 μM simultaneously, after LPS; FPy1 5 μM
Text: The efficient and rapid discovery of Cas-1 modulators is of significant importance considering the therapeutic potential of Cas-1 in various diseases.[39,40] Therefore, we employed FPy1 to construct a high-content screening system aimed at identifying Cas-1 modulators. The level of activated Cas-1 in cells is influenced by multiple factors. To reduce the impact of factors that affect Cas-1 activation in cells, we utilized the NLRP3 inflammasome-mediated Cas-1 activation model, administering the drug during the second stage where the zymogen was converted into activated Cas-1. MCC950, a selective NLRP3 inflammasome inhibitor that could suppress Cas-1 activation, was selected as the positive drug.[41] […] To validate the efficacy of the Cas-1 modulator screening system (Fig. 6a), we first observed the fluorescence images of PMs stained with FPy1 (5 μM) in the control group, model group, and positive drug group. […] Subsequently, the impact of 25 natural products (10 μM) on activated Cas-1 were studied using high-content analysis (Fig. S20). […] To determine whether deoxyshikonin directly binds to Cas-1 and inhibits its activity, we conducted fluorescence detection following co-incubation of deoxyshikonin, FPy1 and Cas-1. […]
Harvested rat discs were fixed in 4 % buffered paraformaldehyde for 24 hours, decalcified in 10 % ethylenediaminetetraacetic acid (EDTA, Solarbio, E8030) solution for 1 month, embedded in paraffin, and sectioned at a thickness of 5 μm. […] Stained sections were evaluated by three independent raters, blinded to the research protocol, and measurements were averaged for statistical analysis. […]
In vivo fluorescence imaging of intervertebral disc degeneration
Twelve rats were modeled with needle puncture-induced intervertebral disc degeneration at the Co5/6, Co6/7 and Co 7/8 levels. […] In vivo fluorescence images were acquired using an in vivo Imaging System (PerkinElmer). […]
In vivo fluorescence imaging of osteoarthritis […]

Compound | fluorescence response to caspase-8 (caspase-8) | maximum fluorescence intensity at 585 nm (caspase-1 [1]; compared with FPy1 and YPy1) | baseline fluorescence intensity at 585 nm (caspase-1 [1]; compared with other probes) | linear fitting range of Cas-1 concentration (caspase-1 [1]; fluorescence intensity at 585 nm vs Cas-1 concentration, 37 °C, 2 h) | enhancement of fluorescence intensity at 585 nm (caspase-1 [1]; Cas-1 0–3 U/mL, assay buffer 50 mM HEPES, 50 mM NaCl, 0.1% chaps, 5% glycerol, 10 mM DTT, 10 mM EDTA, 37 °C, 2 h, λex 510 nm) | time to maximum fluorescence intensity at 585 nm (reaction time) (caspase-1 [2]) [min] | fluorescence intensity of FPy1, positive drug group vs model group [3]
–WEHDG– [WPy1, caspase-1-responsive FRET probe with recognition peptide –WEHDG–; RhoB donor, hNR quencher] | a certain level of response to caspase-8 | significantly lower than that of FPy1 and YPy1 | lower baseline fluorescence intensity | 0–1.25 U mL^−1 | about 11.5 fold | 60 | 
CC(C)(O)c1coc(S(=O)(=O)NC(=O)Nc2c3c(cc4c2CCC4)CCC3)c1 [MCC950, reference compound] |  |  |  |  |  |  | significantly lower than in the model group
